Data reported in PubChem BioAssay AID2060613 (Molecular Pharmacology Branch, DTP, NCI, 2025).
Each block holds one compound with its values, some of them ahead of it.

System: 233499-124-R-J3-PDC complex spheroid viability
Assay: Anticancer human tumor 233499-124-R-J3-PDC patient-derived colon adenocarcinoma cell line growth inhibition [CLK]
Conditions: for IC50: curve of first compound; for viability, T/C: stronger effect = lower value
Procedure, shortened: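 Patient-derived tumor cells grown as complex spheroids with HUVEC endothelial cells and mesenchymal stem cells, treated with drug combinations. Concentrations descend in half-log steps from near clinical Cmax, or from 10 microM if Cmax unknown.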

[1] = second compound 0.0316 µM, first compound 0.0316 µM
[2] = second compound 0.0316 µM, first compound 0.1 µM
[3] = second compound 0.0316 µM, first compound 0.316 µM
[4] = second compound 0.0316 µM, first compound 1 µM
[5] = second compound 0.0316 µM, first compound 3.16 µM
[6] = second compound 0.0316 µM, first compound 10 µM
[7] = second compound 0.1 µM, first compound 0.0316 µM
[8] = second compound 0.1 µM, first compound 0.1 µM
[9] = second compound 0.1 µM, first compound 0.316 µM
[10] = second compound 0.1 µM, first compound 1 µM
[11] = second compound 0.1 µM, first compound 3.16 µM
[12] = second compound 0.1 µM, first compound 10 µM
[13] = second compound 0.316 µM, first compound 0.0316 µM
[14] = second compound 0.316 µM, first compound 0.1 µM
[15] = second compound 0.316 µM, first compound 0.316 µM
[16] = second compound 0.316 µM, first compound 1 µM
[17] = second compound 0.316 µM, first compound 3.16 µM
[18] = second compound 0.316 µM, first compound 10 µM
[19] = second compound 1 µM, first compound 0.0316 µM
[20] = second compound 1 µM, first compound 0.1 µM
[21] = second compound 1 µM, first compound 0.316 µM
[22] = second compound 1 µM, first compound 1 µM
[23] = second compound 1 µM, first compound 3.16 µM
[24] = second compound 1 µM, first compound 10 µM
[25] = second compound 3.16 µM, first compound 0.0316 µM
[26] = second compound 3.16 µM, first compound 0.1 µM
[27] = second compound 3.16 µM, first compound 0.316 µM
[28] = second compound 3.16 µM, first compound 1 µM
[29] = second compound 3.16 µM, first compound 3.16 µM
[30] = second compound 3.16 µM, first compound 10 µM
[31] = second compound 10 µM, first compound 0.0316 µM
[32] = second compound 10 µM, first compound 0.1 µM
[33] = second compound 10 µM, first compound 0.316 µM
[34] = second compound 10 µM, first compound 1 µM
[35] = second compound 10 µM, first compound 3.16 µM
[36] = second compound 10 µM, first compound 10 µM
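Note: spheroids exposed to the drug combinations for seven days.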
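Throughout, for viability, T/C: percent viability relative to DMSO vehicle control wells taken as 100%.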

SMILES: NC(=O)C(=Cn1cnc(-c2cc(C(F)(F)F)cc(C(F)(F)F)c2)n1)c1cncnc1 + CN1CCN(c2cc(C(=O)Nc3cc4cc(-c5cnn(C)c5)ccc4cn3)ccn2)CC1
IC50 (second compound 0.0316 µM): 181 nM
IC50 (second compound 0.1 µM): 76.8 nM
IC50 (second compound 0.316 µM): < 9.49 nM
IC50 (second compound 1 µM): < 9.49 nM
IC50 (second compound 3.16 µM): < 9.49 nM
IC50 (second compound 10 µM): < 9.49 nM
viability, T/C (second compound 0.0316 µM, first compound 0.00949 µM): 72.5%
viability, T/C (second compound 0.0316 µM, first compound 0.03 µM): 85.6%
viability, T/C (second compound 0.0316 µM, first compound 0.0949 µM): 67.3%
viability, T/C (second compound 0.0316 µM, first compound 0.3 µM): 35.2%
viability, T/C (second compound 0.0316 µM, first compound 0.949 µM): 10.4%
viability, T/C (second compound 0.0316 µM, first compound 3 µM): 2.15%
viability, T/C (second compound 0.1 µM, first compound 0.00949 µM): 102%
viability, T/C (second compound 0.1 µM, first compound 0.03 µM): 96.2%
viability, T/C (second compound 0.1 µM, first compound 0.0949 µM): 39.2%
viability, T/C (second compound 0.1 µM, first compound 0.3 µM): 7.63%
viability, T/C (second compound 0.1 µM, first compound 0.949 µM): 0.53%
viability, T/C (second compound 0.1 µM, first compound 3 µM): 0.43%
viability, T/C (second compound 0.316 µM, first compound 0.00949 µM): 22.2%
viability, T/C (second compound 0.316 µM, first compound 0.03 µM): 13.2%
viability, T/C (second compound 0.316 µM, first compound 0.0949 µM): 0.29%
viability, T/C (second compound 0.316 µM, first compound 0.3 µM): 0.23%
viability, T/C (second compound 0.316 µM, first compound 0.949 µM): 0.39%
viability, T/C (second compound 0.316 µM, first compound 3 µM): 1.07%
viability, T/C (second compound 1 µM, first compound 0.00949 µM): 0.3%
viability, T/C (second compound 1 µM, first compound 0.03 µM): 0.31%
viability, T/C (second compound 1 µM, first compound 0.0949 µM): 0.31%
viability, T/C (second compound 1 µM, first compound 0.3 µM): 0.25%
viability, T/C (second compound 1 µM, first compound 0.949 µM): 0.48%
viability, T/C (second compound 1 µM, first compound 3 µM): 0.23%
viability, T/C (second compound 3.16 µM, first compound 0.00949 µM): 0.3%
viability, T/C (second compound 3.16 µM, first compound 0.03 µM): 0.26%
viability, T/C (second compound 3.16 µM, first compound 0.0949 µM): 0.25%
viability, T/C (second compound 3.16 µM, first compound 0.3 µM): 0.25%
viability, T/C (second compound 3.16 µM, first compound 0.949 µM): 0.21%
viability, T/C (second compound 3.16 µM, first compound 3 µM): 0.19%
viability, T/C (second compound 10 µM, first compound 0.00949 µM): 0.13%
viability, T/C (second compound 10 µM, first compound 0.03 µM): 0.12%
viability, T/C (second compound 10 µM, first compound 0.0949 µM): 0.19%
viability, T/C (second compound 10 µM, first compound 0.3 µM): 0.17%
viability, T/C (second compound 10 µM, first compound 0.949 µM): 0.19%
viability, T/C (second compound 10 µM, first compound 3 µM): 0.21%

IC50 (second compound 0.0316 µM): 4620 nM
IC50 (second compound 0.1 µM): 135 nM
IC50 (second compound 0.316 µM): 135 nM
IC50 (second compound 1 µM): 113 nM
IC50 (second compound 3.16 µM): 59.5 nM
IC50 (second compound 10 µM): 129 nM
SMILES: COC1C=CCC(C)C(C)S(=O)(=O)NC(=O)c2ccc3c(c2)N(CC2CCC21)CC1(CCCc2cc(Cl)ccc21)CO3 (stereo not drawn) + CNC(=O)c1ccc(Nc2nc(OC3CCCC3)c3c(-c4ccc5nc(C)oc5c4)c[nH]c3n2)c(OC)c1
viability, T/C [1]: 90.8%
viability, T/C [2]: 93.5%
viability, T/C [3]: 92.5%
viability, T/C [4]: 82.2%
viability, T/C [5]: 71.2%
viability, T/C [6]: 9.78%
viability, T/C [7]: 83.2%
viability, T/C [8]: 57.4%
viability, T/C [9]: 29.4%
viability, T/C [10]: 19%
viability, T/C [11]: 33.8%
viability, T/C [12]: 11.7%
viability, T/C [13]: 79%
viability, T/C [14]: 61%
viability, T/C [15]: 19%
viability, T/C [16]: 9.42%
viability, T/C [17]: 8.88%
viability, T/C [18]: 9.03%
viability, T/C [19]: 81.2%
viability, T/C [20]: 51.6%
viability, T/C [21]: 29.8%
viability, T/C [22]: 10.1%
viability, T/C [23]: 9.03%
viability, T/C [24]: 6.79%
viability, T/C [25]: 69.2%
viability, T/C [26]: 33.6%
viability, T/C [27]: 19.7%
viability, T/C [28]: 12.3%
viability, T/C [29]: 7%
viability, T/C [30]: 7.88%
viability, T/C [31]: 60.6%
viability, T/C [32]: 59.5%
viability, T/C [33]: 17.5%
viability, T/C [34]: 11.5%
viability, T/C [35]: 7.72%
viability, T/C [36]: 5.45%

IC50 (second compound 0.0316 µM): > 1000 nM
IC50 (second compound 0.1 µM): > 1000 nM
IC50 (second compound 0.316 µM): > 1000 nM
IC50 (second compound 1 µM): 971 nM
IC50 (second compound 3.16 µM): > 1000 nM
IC50 (second compound 10 µM): > 1000 nM
SMILES: CCN1CCN(Cc2ccc(Nc3ncc(F)c(-c4cc(F)c5nc(C)n(C(C)C)c5c4)n3)nc2)CC1 + CNC(=O)c1ccc(Nc2nc(OC3CCCC3)c3c(-c4ccc5nc(C)oc5c4)c[nH]c3n2)c(OC)c1
viability, T/C (second compound 0.0316 µM, first compound 0.00316 µM): 88.3%
viability, T/C (second compound 0.0316 µM, first compound 0.01 µM): 98.3%
viability, T/C [1]: 90%
viability, T/C [2]: 106%
viability, T/C [3]: 102%
viability, T/C [4]: 70.1%
viability, T/C (second compound 0.1 µM, first compound 0.00316 µM): 71.7%
viability, T/C (second compound 0.1 µM, first compound 0.01 µM): 91.6%
viability, T/C [7]: 84.8%
viability, T/C [8]: 83.8%
viability, T/C [9]: 89.3%
viability, T/C [10]: 64%
viability, T/C (second compound 0.316 µM, first compound 0.00316 µM): 68.8%
viability, T/C (second compound 0.316 µM, first compound 0.01 µM): 84.3%
viability, T/C [13]: 78%
viability, T/C [14]: 94.2%
viability, T/C [15]: 62.7%
viability, T/C [16]: 53.1%
viability, T/C (second compound 1 µM, first compound 0.00316 µM): 77.2%
viability, T/C (second compound 1 µM, first compound 0.01 µM): 85.9%
viability, T/C [19]: 74.3%
viability, T/C [20]: 85.3%
viability, T/C [21]: 84.5%
viability, T/C [22]: 49.2%
viability, T/C (second compound 3.16 µM, first compound 0.00316 µM): 81.1%
viability, T/C (second compound 3.16 µM, first compound 0.01 µM): 75.2%
viability, T/C [25]: 78.1%
viability, T/C [26]: 78.7%
viability, T/C [27]: 97.2%
viability, T/C [28]: 57.6%
viability, T/C (second compound 10 µM, first compound 0.00316 µM): 76.4%
viability, T/C (second compound 10 µM, first compound 0.01 µM): 80.9%
viability, T/C [31]: 66.8%
viability, T/C [32]: 74.5%
viability, T/C [33]: 60.1%
viability, T/C [34]: 51.1%

SMILES: C=CC(=O)N1CCN(c2nc(=O)n(-c3c(C)ccnc3C(C)C)c3nc(-c4c(O)cccc4F)c(F)cc23)C(C)C1 (stereo not drawn) + CN1CCN(c2cc(C(=O)Nc3cc4cc(-c5cnn(C)c5)ccc4cn3)ccn2)CC1
IC50 (second compound 0.0316 µM): > 10000 nM
IC50 (second compound 0.1 µM): > 10000 nM
IC50 (second compound 0.316 µM): > 10000 nM
IC50 (second compound 1 µM): < 31.6 nM
IC50 (second compound 3.16 µM): < 31.6 nM
IC50 (second compound 10 µM): < 31.6 nM
viability, T/C [1]: 91%
viability, T/C [2]: 105%
viability, T/C [3]: 103%
viability, T/C [4]: 102%
viability, T/C [5]: 102%
viability, T/C [6]: 101%
viability, T/C [7]: 99.8%
viability, T/C [8]: 102%
viability, T/C [9]: 106%
viability, T/C [10]: 99.9%
viability, T/C [11]: 101%
viability, T/C [12]: 108%
viability, T/C [13]: 89.6%
viability, T/C [14]: 103%
viability, T/C [15]: 96%
viability, T/C [16]: 88.5%
viability, T/C [17]: 92.4%
viability, T/C [18]: 82.6%
viability, T/C [19]: 3.8%
viability, T/C [20]: 11.4%
viability, T/C [21]: 1.76%
viability, T/C [22]: 2.52%
viability, T/C [23]: 1.73%
viability, T/C [24]: 0.3%
viability, T/C [25]: 0.65%
viability, T/C [26]: 0.61%
viability, T/C [27]: 0.73%
viability, T/C [28]: 0.79%
viability, T/C [29]: 1.69%
viability, T/C [30]: 1.55%
viability, T/C [31]: 0.41%
viability, T/C [32]: 0.38%
viability, T/C [33]: 0.45%
viability, T/C [34]: 0.53%
viability, T/C [35]: 0.5%
viability, T/C [36]: 1.01%
